This note sets out measurements from PubChem BioAssay (NCI).

Where “and” joins values, the source holds several entries; their conditions need not be identical. Equal values may be shown once.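 Exposure lasted 48 hours, with cells grown in 96-well plates and compounds tested at five concentrations. GI50 = concentration required for 50% inhibition of growth. The concentration for full growth arrest is given as TGI.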

Test systems include HOP-62 NSCLC; TK-10 renal; UACC-62 melanoma; SK-OV-3 ovarian; HT29 colon; SN12C renal; A498 renal; PC-3 prostate; OVCAR-4 ovarian; RXF 393 renal.
Common to all, as to test: NCI tumour cell line growth inhibition, 48 h

As to `Nc1n[n+]([O-])c2cc([N+](=O)[O-])ccc2[n+]1[O-]`, the TGI in the test on HOP-62 NSCLC was determined as 22.3 µM; in the test on TK-10 renal it was 86.1 µM; in the test on UACC-62 melanoma, 9.84 µM; in the test on SK-OV-3 ovarian, 61.2 µM; in the test with HT29 colon, 10.1 µM; in the test with SN12C renal it was 18.1 µM. The TGI in the test with A498 renal was 36.6 µM; in the test with PC-3 prostate, above 100 µM; in the test with OVCAR-4 ovarian, 10.2 µM.
As to `N#CCc1c(F)c(F)c(F)c(F)c1F`, the TGI in the test with HOP-62 NSCLC, in the test with TK-10 renal, in the test on UACC-62 melanoma, in the test on SK-OV-3 ovarian, in the test on HT29 colon and in the test with SN12C renal was above 100 µM each time. Also, the TGI in the test with A498 renal, with PC-3 prostate and with RXF 393 renal was above 100 µM each time.
For the molecule `CC1(C)OB(c2ccc(N(CCOS(C)(=O)=O)CCOS(C)(=O)=O)cc2)OC1(C)C`, the GI50 with HOP-62 NSCLC was 7.92 µM; in the test with TK-10 renal, 18.9 µM; with UACC-62 melanoma it was 13 µM; with SK-OV-3 ovarian, 34.3 µM; with HT29 colon, 30 µM; in the test on SN12C renal it was 9.38 µM. For the same molecule, the GI50 was 15.6 µM in the test on PC-3 prostate, 32.9 µM in the test with OVCAR-4 ovarian and 24.6 µM with RXF 393 renal. Moreover, the TGI in the test with HOP-62 NSCLC is 23.4 µM; in the test on TK-10 renal it was 56.4 µM; in the test on UACC-62 melanoma, 33 µM; in the test with SK-OV-3 ovarian, above 100 µM; in the test on HT29 colon, above 100 µM; in the test on SN12C renal, above 54.6 µM. Also, the TGI was above 79.7 µM in the test with PC-3 prostate, above 86.6 µM in the test on OVCAR-4 ovarian and above 67.4 µM in the test on RXF 393 renal.
For `CCN(C(=O)N1CCN(c2cc3c(cc2F)c(=O)c(C(=O)O)cn3C2CC2)CC1)c1nc(-c2ccccc2)cs1`, the GI50 was 2.82 µM in the test with HOP-62 NSCLC; 3.37 µM in the test with TK-10 renal; 2.05 µM with UACC-62 melanoma; 2.1 µM with SK-OV-3 ovarian; 3.2 µM in the test on HT29 colon; 3.44 µM with SN12C renal. The values for the GI50 in the test with PC-3 prostate, in the test with OVCAR-4 ovarian and in the test on RXF 393 renal were 2.74 µM, 2.29 µM and 2.52 µM, respectively. In addition, the TGI is above 100 µM with HOP-62 NSCLC; 53.2 µM in the test on TK-10 renal; 5.62 µM in the test with UACC-62 melanoma; 6.86 µM in the test with SK-OV-3 ovarian; above 100 µM in the test on HT29 colon; above 100 µM with SN12C renal. Further, the TGI with PC-3 prostate is above 100 µM; with OVCAR-4 ovarian, 25.9 µM; in the test on RXF 393 renal it was 8.88 µM.
Turning to `COc1ccc2[nH]c(Cl)c(/C=C3/C(=O)Nc4ccccc43)c2c1`, the GI50 in the test with HOP-62 NSCLC is 0.523 µM; with TK-10 renal it was 1.06 µM; in the test on UACC-62 melanoma, 1.11 µM; in the test on SK-OV-3 ovarian, 0.865 µM; in the test with HT29 colon it was 0.316 µM; in the test with SN12C renal, 0.339 µM. Also, the GI50 with PC-3 prostate is 0.676 µM; in the test with OVCAR-4 ovarian, 1.13 µM; in the test with RXF 393 renal it was 0.381 µM. Besides, the TGI turned out to be 1.27 µM in the test with HOP-62 NSCLC; 8.74 µM in the test with TK-10 renal; 2.51 µM in the test on UACC-62 melanoma; 16.9 µM with SK-OV-3 ovarian; 14.7 µM in the test with SN12C renal; 6.84 µM with PC-3 prostate. Besides, the TGI in the test with OVCAR-4 ovarian was found to be 14.3 µM; with RXF 393 renal it was 6.92 µM.
On to `C[C@@H](C1CC[C@H]2[C@@H]3[C@@H]4O[C@@H]4[C@@]4(O)CC=CC(=O)[C@]4(C)[C@H]3C[C@H](O)[C@]12C)[C@H]1C[C@]2(C)O[C@]2(C)C(=O)O1` (stereo partly specified), for which the TGI in the test with TK-10 renal, with UACC-62 melanoma, with SK-OV-3 ovarian, with HT29 colon, in the test on SN12C renal and in the test with A498 renal was above 100 µM throughout. In addition, the TGI in the test on PC-3 prostate and in the test with OVCAR-4 ovarian was above 100 µM each time.
`OCC#CCOCC#Cc1ccccc1C#CCOCC#CCO`: the GI50 in the test on TK-10 renal is 24.4 µM; with UACC-62 melanoma, 25.8 µM; with SN12C renal, 26.7 µM; in the test on A498 renal, 58.7 µM; with PC-3 prostate, 22.5 µM; with RXF 393 renal it was 28.8 µM. The TGI is 68.8 µM with TK-10 renal; 75.1 µM in the test on UACC-62 melanoma; 80.9 µM with SN12C renal; above 100 µM in the test with A498 renal; above 100 µM in the test with PC-3 prostate; 82.4 µM with RXF 393 renal.
As for `O=C(NC1CCN(Cc2ccccc2)CC1)c1cc(-c2cccnc2)nc2ccc(Cl)cc12`, the GI50 in the test with HOP-62 NSCLC was 11.8 µM; with UACC-62 melanoma it was 17.4 µM; in the test with SK-OV-3 ovarian, 14.1 µM; in the test with SN12C renal, 5.2 µM; in the test on PC-3 prostate, 6.16 µM; in the test with OVCAR-4 ovarian, 9.01 µM. Also, the GI50 with RXF 393 renal was 4.18 µM. In addition, the TGI is 31.5 µM in the test with HOP-62 NSCLC; above 100 µM in the test with UACC-62 melanoma; 42.7 µM in the test on SK-OV-3 ovarian; 29.2 µM in the test with SN12C renal; 5.49 µM in the test on A498 renal; above 100 µM in the test with PC-3 prostate. Moreover, the TGI in the test with OVCAR-4 ovarian was determined as 68.5 µM; in the test with RXF 393 renal, 19.4 µM.
Consider `Cc1ccc2c(c1)[n+](=O)c(C(=O)c1cccs1)c(C(F)(F)F)n2[O-]`, for which the GI50 is 2.39 µM and 0.689 µM with HOP-62 NSCLC; 0.718 µM in the test on TK-10 renal; 0.951 µM and 1.91 µM in the test with UACC-62 melanoma; 1.56 µM and 2.34 µM in the test with SK-OV-3 ovarian; 2.76 µM in the test on HT29 colon; 0.796 µM with SN12C renal. Moreover, the GI50 in the test on PC-3 prostate was 0.528 µM and 1.38 µM. In addition, the TGI was 3.22 µM in the test with TK-10 renal; 2.73 µM and 13.9 µM in the test on UACC-62 melanoma; 11.2 µM and 19.4 µM in the test with SK-OV-3 ovarian; 50 µM with HT29 colon; 1.97 µM in the test on SN12C renal.
Take `COc1ccccc1-n1cnc(N)c1C(=O)c1cc(OC)c(OC)c(OC)c1`: the GI50 with HOP-62 NSCLC was 37.4 µM; in the test on TK-10 renal, 5.21 µM; in the test on UACC-62 melanoma, 1.88 µM; with HT29 colon it was 3.41 µM; in the test on SN12C renal it was 5.65 µM; with A498 renal it was 2.79 µM. Also, the GI50 in the test with PC-3 prostate is 3.51 µM; in the test on OVCAR-4 ovarian it was 6.5 µM; in the test with RXF 393 renal, 2.19 µM. For the same molecule, the TGI in the test with HOP-62 NSCLC is above 100 µM; in the test on TK-10 renal it was above 100 µM; in the test on UACC-62 melanoma, above 100 µM; with HT29 colon, above 100 µM; in the test on SN12C renal, above 100 µM; in the test with A498 renal it was 9.69 µM. For the same molecule, the TGI in the test with PC-3 prostate was above 100 µM; in the test on OVCAR-4 ovarian, above 100 µM; with RXF 393 renal, 64.5 µM.
